Source: patent US20250228239A1, “MOLECULES HAVING PESTICIDAL UTILITY, AND INTERMEDIATES, COMPOSITIONS, AND PROCESSES, RELATED THERETO” (priority 2024, published 2025)

What was measured:
Format in all cases: in vivo
[1] = system: Yellow Fever Mosquito (Aedes aegypti, AEDSAE); details: Yellow Fever Mosquito; rating class
Outline: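 Compounds from 4000 ppm DMSO stocks were diluted in 90:10 water/acetone and dispensed into wells, then infested with about 1-day-old larvae in liver-powder water. Covered plates were held at room temperature for 3 days and each well was scored for mortality against a rating scale; six replicate plates per compound.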

[2] = system: Cabbage Looper (Trichoplusia ni, TRIPNI); assay: Bioassays on Cabbage Looper (CL), 128-well diet tray assay; details: Trichoplusia ni; Cabbage Looper; rating class; read-out: CL
Outline: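 Activity is mean percent mortality over eight wells of second-instar larvae exposed to diet treated at 50 μg/cm^2 for 5–7 days at 25° C.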

[3] = system: Beet Armyworm (Spodoptera exigua, LAPHEG); assay: Bioassays on Beet Armyworm (BAW), 128-well diet tray assay; details: Spodoptera exigua; Beet Armyworm; rating class; read-out: BAW
Outline: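 Diet-overlay assay: 50 μg/cm^2 compound applied in 90:10 acetone-water to artificial diet, allowed to dry, then infested with 1–5 L2 larvae/well; 8 wells/compound; covered, vented; 25° C., 14:10 L:D, 5–7 d; % mortality per well, averaged.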

SMILES | YFM [1] | pest or weed control at 50 µg/cm2 [2] | pest or weed control at 50 µg/cm2 [3]
CN(C(=O)C(F)(F)F)c1c(F)ccc(NC(=O)c2cc(NC(=O)[C@H]3[C@H](c4ccc(Cl)c(Cl)c4)C3(Cl)Cl)ccc2Cl)c1F [F1614, 2-Chloro-5-((1R,3R)-2,2-dichloro-3-(3,4-dichlorophenyl)cyclopropane-1-carboxamido)-N-(2,4-difluoro-3-(2,2,2-trifluoro-N-methylacetamido)phenyl)benzamide] | A (80–100) | 50 to 100% | 50 to 100%
CCC1CCC(C(=O)Nc2c(F)ccc(NC(=O)c3cc(NC(=O)[C@H]4[C@H](c5ccc(F)c(C(F)(F)F)c5)C4(Cl)Cl)ccc3Cl)c2F)O1 (stereo partly drawn) [F1626, N-(3-(2-Chloro-5-((1R,3R)-2,2-dichloro-3-(4-fluoro-3-(trifluoromethyl)phenyl)cyclopropane-1-carboxamido)benzamido)-2,6-difluorophenyl)-5-ethyltetrahydrofuran-2-carboxamide] | A (80–100) | 50 to 100% | 50 to 100%
CC(=O)Nc1c(F)cc(F)c(NC(=O)c2cc(NC(=O)[C@H]3[C@H](c4cc(Cl)cc(Cl)c4)C3(Cl)Cl)ccc2Cl)c1F [F1628, N-(3-Acetamido-2,4,6-trifluorophenyl)-2-chloro-5-((1R,3R)-2,2-dichloro-3-(3,5-dichlorophenyl)cyclopropane-1-carboxamido)benzamide] | A (80–100) | 50 to 100% | 50 to 100%
CC(=O)Nc1c(F)cc(F)c(NC(=O)c2cc(NC(=O)[C@H]3[C@H](c4ccc(Cl)c(Cl)c4)C3(Cl)Cl)ccc2Cl)c1F [F1629, N-(3-Acetamido-2,4,6-trifluorophenyl)-2-chloro-5-((1R,3R)-2,2-dichloro-3-(3,4-dichlorophenyl)cyclopropane-1-carboxamido)benzamide] | B (More than 0 – Less than 80) | 50 to 100% | 50 to 100%
COCC(=O)N(C)c1c(F)ccc(NC(=O)c2cc(NC(=O)[C@H]3[C@H](c4ccc(Cl)c(Cl)c4)C3(Cl)Cl)ccc2Cl)c1F [F1630, 2-Chloro-5-((1R,3R)-2,2-dichloro-3-(3,4-dichlorophenyl)cyclopropane-1-carboxamido)-N-(2,4-difluoro-3-(2-methoxy-N-methylacetamido)phenyl)benzamide] | A (80–100) | 50 to 100% | 50 to 100%
CCOC(C)C(=O)Nc1c(F)ccc(NC(=O)c2cc(NC(=O)[C@H]3[C@H](c4cc(Cl)c(Cl)c(Cl)c4)C3(Cl)Cl)ccc2Cl)c1F (stereo partly drawn) [F1645, 2-Chloro-5-((1R,3R)-2,2-dichloro-3-(3,4,5-trichlorophenyl)cyclopropane-1-carboxamido)-N-(3-(2-ethoxypropanamido)-2,4-difluorophenyl)benzamide] | A (80–100) | 50 to 100% | 50 to 100%
COCC(=O)Nc1c(F)ccc(NC(=O)c2cc(NC(=O)[C@H]3[C@H](c4cc(Cl)c(Cl)c(Cl)c4)C3(Cl)Cl)ccc2Cl)c1F [F1646, 2-Chloro-5-((1R,3R)-2,2-dichloro-3-(3,4,5-trichlorophenyl)cyclopropane-1-carboxamido)-N-(2,4-difluoro-3-(2-methoxyacetamido)phenyl)benzamide] | A (80–100) | 50 to 100% | 50 to 100%
O=C(CC(F)(F)F)Nc1c(F)ccc(NC(=O)c2cc(NC(=O)[C@H]3[C@H](c4cc(Cl)c(Cl)c(Cl)c4)C3(Cl)Cl)ccc2Cl)c1F [F1651, 2-Chloro-5-((1R,3R)-2,2-dichloro-3-(3,4,5-trichlorophenyl)cyclopropane-1-carboxamido)-N-(2,4-difluoro-3-(3,3,3-trifluoropropanamido)phenyl)benzamide] | A (80–100) | 50 to 100% | 50 to 100%
O=C(CC1CC1)Nc1c(F)ccc(NC(=O)c2cc(NC(=O)[C@H]3[C@H](c4cc(Cl)c(Cl)c(Cl)c4)C3(Cl)Cl)ccc2Cl)c1F [F1653, 2-Chloro-N-(3-(2-cyclopropylacetamido)-2,4-difluorophenyl)-5-((1R,3R)-2,2-dichloro-3-(3,4,5-trichlorophenyl)cyclopropane-1-carboxamido)benzamide] | A (80–100) | 50 to 100% | 50 to 100%
CCC(=O)Nc1c(F)ccc(NC(=O)c2cc(NC(=O)[C@H]3[C@H](c4cc(Cl)c(Cl)c(Cl)c4)C3(Cl)Cl)ccc2Cl)c1F [F1654, 2-Chloro-5-((1R,3R)-2,2-dichloro-3-(3,4,5-trichlorophenyl)cyclopropane-1-carboxamido)-N-(2,4-difluoro-3-propionamidophenyl)benzamide] | A (80–100) | 50 to 100% | 50 to 100%
CCOC(C)C(=O)Nc1c(F)ccc(NC(=O)c2cc(NC(=O)[C@H]3[C@H](c4ccc(Cl)c(C(F)(F)F)c4)C3(Cl)Cl)ccc2Cl)c1F (stereo partly drawn) [F1660, 2-Chloro-5-((1R,3R)-2,2-dichloro-3-(4-chloro-3-(trifluoromethyl)phenyl)cyclopropane-1-carboxamido)-N-(3-(2-ethoxypropanamido)-2,4-difluorophenyl)benzamide] | A (80–100) | 50 to 100% | 50 to 100%
O=C(Nc1ccc(F)c(NC(=O)C2CCCO2)c1F)c1cc(NC(=O)[C@H]2[C@H](c3ccc(Cl)c(C(F)(F)F)c3)C2(Cl)Cl)ccc1Cl (stereo partly drawn) [F1661, N-(3-(2-Chloro-5-((1R,3R)-2,2-dichloro-3-(4-chloro-3-(trifluoromethyl)phenyl)cyclopropane-1-carboxamido)benzamido)-2,6-difluorophenyl)tetrahydrofuran-2-carboxamide] | A (80–100) | 50 to 100% | 50 to 100%
CCC(Cl)C(=O)Nc1c(F)ccc(NC(=O)c2cc(NC(=O)[C@H]3[C@H](c4ccc(F)c(C(F)(F)F)c4)C3(Cl)Cl)ccc2Cl)c1F (stereo partly drawn) [F1668, 2-Chloro-N-(3-(2-chlorobutanamido)-2,4-difluorophenyl)-5-((1R,3R)-2,2-dichloro-3-(4-fluoro-3-(trifluoromethyl)phenyl)cyclopropane-1-carboxamido)benzamide] | A (80–100) | 50 to 100% | 50 to 100%
CC(Cl)CC(=O)Nc1c(F)ccc(NC(=O)c2cc(NC(=O)[C@H]3[C@H](c4ccc(F)c(C(F)(F)F)c4)C3(Cl)Cl)ccc2Cl)c1F (stereo partly drawn) [F1669, 2-Chloro-N-(3-(3-chlorobutanamido)-2,4-difluorophenyl)-5-((1R,3R)-2,2-dichloro-3-(4-fluoro-3-(trifluoromethyl)phenyl)cyclopropane-1-carboxamido)benzamide] | A (80–100) | 50 to 100% | 50 to 100%
O=C(Nc1c(F)ccc(NC(=O)c2cc(NC(=O)[C@H]3[C@H](c4ccc(Cl)c(Cl)c4)C3(Cl)Cl)ccc2Cl)c1F)c1ccno1 [F1671, N-(3-(2-Chloro-5-((1R,3R)-2,2-dichloro-3-(3,4-dichlorophenyl)cyclopropane-1-carboxamido)benzamido)-2,6-difluorophenyl)isoxazole-5-carboxamide] | B (More than 0 – Less than 80) | 50 to 100% | 50 to 100%
O=C(Nc1ccc(F)c(NC(=O)C(F)F)c1F)c1cc(NC(=O)[C@H]2[C@H](c3cccc(C(F)(F)F)c3)C2(Cl)Cl)ccc1Cl [F1675, 2-Chloro-5-((1R,3R)-2,2-dichloro-3-(3-(trifluoromethyl)phenyl)cyclopropane-1-carboxamido)-N-(3-(2,2-difluoroacetamido)-2,4-difluorophenyl)benzamide] | A (80–100) | 50 to 100% | 50 to 100%
CCC(=O)Nc1c(F)ccc(NC(=O)c2cc(NC(=O)[C@H]3[C@H](c4cccc(C(F)(F)F)c4)C3(Cl)Cl)ccc2Cl)c1F [F1679, 2-Chloro-5-((1R,3R)-2,2-dichloro-3-(3-(trifluoromethyl)phenyl)cyclopropane-1-carboxamido)-N-(2,4-difluoro-3-propionamidophenyl)benzamide] | A (80–100) | 50 to 100% | 50 to 100%
Cc1c(F)c(NC(=O)c2cc(NC(=O)[C@H]3[C@H](c4ccc(F)c(C(F)(F)F)c4)C3(Cl)Cl)ccc2Cl)cc(NC(=O)C(F)F)c1F [F1680, 2-Chloro-5-((1R,3R)-2,2-dichloro-3-(4-fluoro-3-(trifluoromethyl)phenyl)cyclopropane-1-carboxamido)-N-(5-(2,2-difluoroacetamido)-2,4-difluoro-3-methylphenyl)benzamide] | B (More than 0 – Less than 80) | 50 to 100% | 50 to 100%
O=C(CC1CC1)Nc1c(F)ccc(NC(=O)c2cc(NC(=O)[C@H]3[C@H](c4ccc(F)c(C(F)(F)F)c4)C3(Cl)Cl)ccc2Cl)c1F [F1682, 2-Chloro-N-(3-(2-cyclopropylacetamido)-2,4-difluorophenyl)-5-((1R,3R)-2,2-dichloro-3-(4-fluoro-3-(trifluoromethyl)phenyl)cyclopropane-1-carboxamido)benzamide] | A (80–100) | 50 to 100% | 50 to 100%
